In PubChem BioAssay (NCI):
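Following 48 hours of exposure in 96-well plates, responses at five concentrations were used to interpolate endpoints linearly. GI50: concentration for 50% inhibition of growth. TGI marks complete inhibition of growth.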

Columns and labels:
Experiment in all cases: inhibition of tumour cell growth, NCI panel, 48 h
HL-60(TB) leukemia = system: HL-60(TB) leukemia
HS 578T breast = system: HS 578T breast
786-0 renal = system: 786-0 renal
CCRF-CEM leukemia = system: CCRF-CEM leukemia
MOLT-4 leukemia = system: MOLT-4 leukemia
NCI-H522 lung = system: NCI-H522 lung
A549 NSCLC = system: A549 NSCLC
MCF7 breast = system: MCF7 breast
MALME-3M melanoma = system: MALME-3M melanoma
SK-OV-3 ovarian = system: SK-OV-3 ovarian
HT29 colon = system: HT29 colon
BT-549 breast = system: BT-549 breast
MDA-MB-435 = system: MDA-MB-435
SK-MEL-5 melanoma = system: SK-MEL-5 melanoma
SNB-75 CNS = system: SNB-75 CNS
A498 renal = system: A498 renal
DU-145 prostate = system: DU-145 prostate
PC-3 prostate = system: PC-3 prostate
SR leukemia = system: SR leukemia
SN12C renal = system: SN12C renal
NCI-H226 lung = system: NCI-H226 lung
SF-539 CNS = system: SF-539 CNS
LOX IMVI melanoma = system: LOX IMVI melanoma
SNB-19 CNS = system: SNB-19 CNS
SK-MEL-28 melanoma = system: SK-MEL-28 melanoma
M14 melanoma = system: M14 melanoma
OVCAR-8 ovarian = system: OVCAR-8 ovarian
HCT-116 colon = system: HCT-116 colon
IGROV1 ovarian = system: IGROV1 ovarian
HCC-2998 colon = system: HCC-2998 colon
RPMI-8226 leukemia = system: RPMI-8226 leukemia
HCT-15 colon = system: HCT-15 colon
UACC-257 melanoma = system: UACC-257 melanoma
HOP-62 NSCLC = system: HOP-62 NSCLC
COLO 205 colon = system: COLO 205 colon
UACC-62 melanoma = system: UACC-62 melanoma
KM12 colon = system: KM12 colon
ACHN renal = system: ACHN renal
SW-620 colon = system: SW-620 colon
TK-10 renal = system: TK-10 renal
SF-268 CNS = system: SF-268 CNS
EKVX NSCLC = system: EKVX NSCLC
NCI-H23 lung = system: NCI-H23 lung
UO-31 renal = system: UO-31 renal
K-562 leukemia = system: K-562 leukemia
CAKI-1 renal = system: CAKI-1 renal
T-47D breast = system: T-47D breast
MDA-MB-231 breast = system: MDA-MB-231 breast
NCI-H460 lung = system: NCI-H460 lung
SF-295 CNS = system: SF-295 CNS
U251 CNS = system: U251 CNS
NCI/ADR-RES ovarian = system: NCI/ADR-RES ovarian
OVCAR-3 ovarian = system: OVCAR-3 ovarian
RXF 393 renal = system: RXF 393 renal
SK-MEL-2 melanoma = system: SK-MEL-2 melanoma
OVCAR-5 ovarian = system: OVCAR-5 ovarian
OVCAR-4 ovarian = system: OVCAR-4 ovarian
HOP-92 NSCLC = system: HOP-92 NSCLC

For `Cc1nn(C(=O)Cc2ccccc2)c2c1C(c1ccccc1O)SC(N)=N2` (stereo not drawn), the TGI (HL-60(TB) leukemia) was > 100000 nM, the TGI (HS 578T breast) was > 100000 nM and the TGI (786-0 renal) was > 100000 nM. The TGI (CCRF-CEM leukemia) was > 100000 nM, the TGI (MOLT-4 leukemia) was > 100000 nM and the TGI (NCI-H522 lung) was > 100000 nM. The TGI (A549 NSCLC) was > 100000 nM, the TGI (MCF7 breast) was > 100000 nM and the TGI (MALME-3M melanoma) was > 100000 nM. For the same molecule, the TGI (SK-OV-3 ovarian) was > 100000 nM, the TGI (HT29 colon) was > 100000 nM and the TGI (BT-549 breast) was > 100000 nM. For the same molecule, the TGI (MDA-MB-435) was > 100000 nM, the TGI (SK-MEL-5 melanoma) was > 100000 nM and the TGI (SNB-75 CNS) was > 100000 nM. For the same molecule, the TGI (A498 renal) was > 100000 nM, the TGI (DU-145 prostate) was > 100000 nM and the TGI (PC-3 prostate) was > 100000 nM. The TGI (SR leukemia) was > 100000 nM, the TGI (SN12C renal) was > 100000 nM and the TGI (NCI-H226 lung) was > 100000 nM. The TGI (SF-539 CNS) was > 100000 nM, the TGI (LOX IMVI melanoma) was > 100000 nM and the TGI (SNB-19 CNS) was > 100000 nM. The TGI (SK-MEL-28 melanoma) was > 100000 nM, the TGI (M14 melanoma) was > 100000 nM and the TGI (OVCAR-8 ovarian) was > 100000 nM. The TGI (HCT-116 colon) was > 100000 nM, the TGI (IGROV1 ovarian) was > 100000 nM and the TGI (HCC-2998 colon) was > 100000 nM. For the same molecule, the TGI (RPMI-8226 leukemia) was > 100000 nM, the TGI (HCT-15 colon) was > 100000 nM and the TGI (UACC-257 melanoma) was > 100000 nM. The TGI (HOP-62 NSCLC) was > 100000 nM, the TGI (COLO 205 colon) was > 100000 nM and the TGI (UACC-62 melanoma) was > 100000 nM. The TGI (KM12 colon) was > 100000 nM, the TGI (ACHN renal) was > 100000 nM and the TGI (SW-620 colon) was > 100000 nM. The TGI (TK-10 renal) was > 100000 nM, the TGI (SF-268 CNS) was > 100000 nM and the TGI (EKVX NSCLC) was > 100000 nM. For the same molecule, the TGI (NCI-H23 lung) was > 100000 nM, the TGI (UO-31 renal) was > 100000 nM and the TGI (K-562 leukemia) was > 100000 nM. The TGI (CAKI-1 renal) was > 100000 nM, the TGI (T-47D breast) was > 100000 nM and the TGI (MDA-MB-231 breast) was > 100000 nM. For the same molecule, the TGI (NCI-H460 lung) was > 100000 nM and the TGI (SF-295 CNS) was > 100000 nM.
With `O=C1c2ccccc2-c2c1c1ccccc1c(=O)n2CCCNCCCNCCCn1c2c(c3ccccc3c1=O)C(=O)c1ccccc1-2` the GI50 (HS 578T breast) was 98.4 nM, the TGI (HS 578T breast) was 1280 nM and the GI50 (786-0 renal) was < 36.2 nM. For the same molecule, the TGI (786-0 renal) was 172 nM, the GI50 (CCRF-CEM leukemia) was < 10 nM and the TGI (CCRF-CEM leukemia) was 175 nM. For the same molecule, the GI50 (MOLT-4 leukemia) was < 10 nM, the GI50 (NCI-H522 lung) was < 10 nM and the TGI (NCI-H522 lung) was 55.4 nM. It also gave a GI50 (A549 NSCLC) of 17.4 nM, a TGI (A549 NSCLC) of 183 nM and a GI50 (MCF7 breast) of 38.2 nM. For the same molecule, the TGI (MCF7 breast) was 180 nM, the GI50 (SK-OV-3 ovarian) was 1900 nM and the TGI (SK-OV-3 ovarian) was 6040 nM. For the same molecule, the GI50 (HT29 colon) was < 10 nM, the TGI (HT29 colon) was 135 nM and the GI50 (BT-549 breast) was 665 nM. It also gave a TGI (BT-549 breast) of 2080 nM, a GI50 (MDA-MB-435) of 338 nM and a TGI (MDA-MB-435) of 2260 nM. The GI50 (SK-MEL-5 melanoma) was 120 nM, the TGI (SK-MEL-5 melanoma) was 1220 nM and the GI50 (U251 CNS) was < 10 nM. For the same molecule, the TGI (U251 CNS) was 122 nM, the GI50 (SNB-75 CNS) was 1130 nM and the TGI (SNB-75 CNS) was 3050 nM. It also gave a GI50 (A498 renal) of 1250 nM, a TGI (A498 renal) of 2610 nM and a GI50 (DU-145 prostate) of 29.5 nM. It also gave a TGI (DU-145 prostate) of 181 nM, a GI50 (NCI/ADR-RES ovarian) of 319 nM and a TGI (NCI/ADR-RES ovarian) of 1980 nM. The GI50 (PC-3 prostate) was 39.7 nM, the TGI (PC-3 prostate) was 142 nM and the GI50 (SN12C renal) was < 10 nM. The TGI (SN12C renal) was < 30.3 nM, the GI50 (NCI-H226 lung) was < 14 nM and the TGI (NCI-H226 lung) was 903 nM. It also gave a GI50 (LOX IMVI melanoma) of 21.5 nM, a TGI (LOX IMVI melanoma) of 175 nM and a GI50 (SNB-19 CNS) of 681 nM. The TGI (SNB-19 CNS) was 4100 nM, the GI50 (SK-MEL-28 melanoma) was 1170 nM and the TGI (SK-MEL-28 melanoma) was 2830 nM. For the same molecule, the GI50 (M14 melanoma) was 333 nM, the TGI (M14 melanoma) was 1290 nM and the GI50 (OVCAR-8 ovarian) was < 10 nM. For the same molecule, the TGI (OVCAR-8 ovarian) was 201 nM, the GI50 (HCT-116 colon) was < 10 nM and the TGI (HCT-116 colon) was 476 nM. The GI50 (IGROV1 ovarian) was < 10 nM, the TGI (IGROV1 ovarian) was < 41.6 nM and the GI50 (HCC-2998 colon) was < 16.2 nM. For the same molecule, the TGI (HCC-2998 colon) was 167 nM, the GI50 (HCT-15 colon) was 60.5 nM and the TGI (HCT-15 colon) was 196 nM. For the same molecule, the GI50 (UACC-257 melanoma) was 811 nM, the TGI (UACC-257 melanoma) was 2250 nM and the GI50 (HOP-62 NSCLC) was < 10 nM. For the same molecule, the GI50 (OVCAR-3 ovarian) was 81.8 nM, the TGI (OVCAR-3 ovarian) was 232 nM and the GI50 (COLO 205 colon) was 572 nM. The TGI (COLO 205 colon) was 8100 nM, the GI50 (UACC-62 melanoma) was 43.4 nM and the TGI (UACC-62 melanoma) was 346 nM. It also gave a GI50 (KM12 colon) of 28 nM, a TGI (KM12 colon) of 219 nM and a GI50 (RXF 393 renal) of 56.9 nM. The TGI (RXF 393 renal) was 1110 nM, the GI50 (SK-MEL-2 melanoma) was 15000 nM and the TGI (SK-MEL-2 melanoma) was 28200 nM. For the same molecule, the GI50 (ACHN renal) was < 10 nM, the TGI (ACHN renal) was 388 nM and the GI50 (SW-620 colon) was < 10 nM. It also gave a TGI (SW-620 colon) of 150 nM, a GI50 (OVCAR-5 ovarian) of 76.3 nM and a TGI (OVCAR-5 ovarian) of 731 nM. The TGI (TK-10 renal) was 732 nM, the GI50 (SF-268 CNS) was 231 nM and the TGI (SF-268 CNS) was 4130 nM. For the same molecule, the GI50 (OVCAR-4 ovarian) was 188 nM, the TGI (OVCAR-4 ovarian) was 1020 nM and the GI50 (HOP-92 NSCLC) was 587 nM. The TGI (HOP-92 NSCLC) was 2180 nM, the GI50 (EKVX NSCLC) was 250 nM and the TGI (EKVX NSCLC) was 595 nM. For the same molecule, the GI50 (NCI-H23 lung) was 38.3 nM, the TGI (NCI-H23 lung) was 1640 nM and the GI50 (UO-31 renal) was 87.8 nM. It also gave a TGI (UO-31 renal) of 215 nM, a GI50 (K-562 leukemia) of 22.5 nM and a TGI (K-562 leukemia) of 1220 nM. It also gave a GI50 (CAKI-1 renal) of 342 nM, a TGI (CAKI-1 renal) of 1700 nM and a GI50 (T-47D breast) of 1640 nM. The TGI (T-47D breast) was 6400 nM, the GI50 (MDA-MB-231 breast) was < 10 nM and the TGI (MDA-MB-231 breast) was 112 nM. For the same molecule, the GI50 (NCI-H460 lung) was < 16.9 nM, the TGI (NCI-H460 lung) was 266 nM and the GI50 (SF-295 CNS) was 15.1 nM. The TGI (SF-295 CNS) was 1260 nM.
